Results reported in US20090156646A1, “PYRIDYLPHENOL COMPOUND AND USE THEREOF” (TAKEDA PHARMACEUTICAL COMPANY LIMITED, priority 2005, published 2009).
Where a name gives a salt, the structure may show the parent alone.

First: CNCC(=O)Nc1cccc(-c2cc(-c3ccccc3O)nc(NC(=O)c3cccs3)c2C#N)c1.Cl
Second: N#Cc1c(-c2cccc(NC(=O)CN)c2)cc(-c2ccccc2O)nc1NC(=O)c1cccs1 (as salt: hydrochloride) [Example 12, N-[3-cyano-4-[3-(glycylamino)phenyl]-6-(2-hydroxyphenyl)pyridin-2-yl]thiophene-2-carboxamide dihydrochloride]
The melting point of the first is higher: 248 to 254 °C for the first, 210 to 217 °C for the second.

`Cl.N#Cc1c(-c2cccc(NC(=O)[C@@H]3CCCN3)c2)cc(-c2ccccc2O)nc1NC(=O)c1cccs1` and `Cl.N#Cc1c(-c2cccc(NC(=O)[C@H]3CCCN3)c2)cc(-c2ccccc2O)nc1NC(=O)c1cccs1` cannot be ordered by melting point: 210 to 218 °C for the first, 213 to 218 °C for the second.

First: COc1ccccc1C(=O)Nc1nc(-c2ccc(Cl)cc2O)cc(-c2cccc(NC(=O)CCN)c2)c1C#N.Cl
Second: CCOc1ccccc1C(=O)Nc1nc(-c2ccc(Cl)cc2O)cc(-c2cccc(NC(=O)CCN)c2)c1C#N.Cl
The melting point of the first is lower: 233 to 238 °C for the first, 240 to 244 °C for the second.

First: Cl.NCCC(=O)Nc1cccc(-c2cc(-c3ccccc3O)nc(NC(=O)c3ccccc3)c2C(=O)O)c1
Second: N#Cc1c(-c2cccc(NC(=O)CCN)c2)cc(-c2ccccc2O)nc1NC(=O)c1ccccc1 (as salt: trifluoroacetate) [Example 31, N-[4-(3-(β-alanylamino)phenyl)-3-cyano-6-(2-hydroxyphenyl)pyridin-2-yl]benzamide trifluoroacetate]
The melting point of the first is higher: 250 to 253 °C for the first, 225 to 226 °C for the second.

First: Cl.N#Cc1c(-c2cccc(NC(=O)CN3CCCCC3)c2)cc(-c2ccc(F)cc2O)nc1NC(=O)c1ccco1
Second: Cl.N#Cc1c(-c2cccc(N3CCCCC3)c2)cc(-c2ccc(F)cc2O)nc1NC(=O)c1ccco1
The melting point of the first is higher: 249 to 251 °C for the first, 240 to 242 °C for the second.

First: Cl.N#Cc1c(-c2ccc(F)c(N)c2)cc(-c2ccc(F)cc2O)nc1NC(=O)c1ccco1
Second: N#Cc1c(-c2cccc(NC(=O)[C@@H](N)CN)c2)cc(-c2ccc(F)cc2O)nc1NC(=O)c1ccco1 (as salt: hydrochloride) [Example 302, N-[4-{3-[(3-amino-L-alanyl)amino]phenyl}-3-cyano-6-(4-fluoro-2-hydroxyphenyl)pyridin-2-yl]-2-furamide dihydrochloride]
The melting point of the first is higher: 284 to 285 °C for the first, 231 to 240 °C for the second.

Compared with `Cl.N#Cc1c(-c2cccc(N3CCOCC3)c2)cc(-c2ccc(F)cc2O)nc1NC(=O)c1ccco1`, `CN1CCN(Cc2cccc(-c3cc(-c4ccc(F)cc4O)nc(NC(=O)c4ccco4)c3C#N)c2)CC1` (as salt: hydrochloride) [Example 333, N-(3-cyano-6-(4-fluoro-2-hydroxyphenyl)-4-{3-[(4-methylpiperazin-1-yl)methyl]phenyl}pyridin-2-yl)-2-furamide dihydrochloride] is lower in melting point: 244 to 246 °C for the first, 205 to 210 °C for the second.

First: Cl.N#Cc1c(-c2cccc(C(=O)NCCCN)c2)cc(-c2ccccc2O)nc1NC(=O)c1cccs1
Second: Cl.N#Cc1c(-c2ccc(C(=O)NCCN)cc2)cc(-c2ccccc2O)nc1NC(=O)c1cccs1
The melting point of the first is lower: 192 to 198 °C for the first, 202 to 208 °C for the second.

`Cl.N#Cc1c(-c2cccc(C(=O)N3CCNCC3)c2)cc(-c2ccccc2O)nc1NC(=O)c1cccs1` and `Cl.N#Cc1c(-c2cccc(C(=O)NC3CCCNC3)c2)cc(-c2ccccc2O)nc1NC(=O)c1cccs1` (centres unmarked) cannot be ordered by melting point: 232 to 236 °C for the first, 232 to 233 °C for the second.

`COc1ccc(O)c(-c2cc(-c3cccc(NC(=O)CCN)c3)c(C#N)c(NC(=O)c3cccs3)n2)c1.Cl` and `N#Cc1c(-c2cccc(NC(=O)CCN)c2)cc(-c2cc(Cl)ccc2O)nc1NC(=O)c1cccs1` (as salt: trifluoroacetate) [Example 46, N-{4-[3-(β-alanylamino)phenyl]-6-(5-chloro-2-hydroxyphenyl)-3-cyanopyridin-2-yl}thiophene-2-carboxamide trifluoroacetate] cannot be ordered by melting point: 197 to 201 °C for the first, 197 to 204 °C for the second.

Compared with `COc1ccccc1C(=O)Nc1nc(-c2ccc(Cl)cc2O)cc(-c2cccc(C(=O)NCCN)c2)c1C#N.Cl`, `Cl.N#Cc1c(-c2cccc(NC(=O)CCN)c2)cc(-c2ccc(Cl)cc2O)nc1NC(=O)c1ccccc1OC(F)(F)F` is lower in melting point: 227 to 229 °C for the first, 218 to 223 °C for the second.

Compared with `Cl.N#Cc1c(-c2cccc(C(=O)NC3CCCNC3)c2)cc(-c2ccccc2O)nc1NC(=O)c1cc2ccccc2s1` (centres unmarked), `N#Cc1c(-c2cccc(C(=O)NC3CCCNC3)c2)cc(-c2ccccc2O)nc1NC(=O)c1ccccn1` (centres unmarked) (as salt: hydrochloride) [Example 10, N-(3-cyano-6-(2-hydroxyphenyl)-4-{3-[(piperidin-3-ylamino)carbonyl]phenyl}pyridin-2-yl)pyridin-2-carboxamide dihydrochloride] is lower in melting point: 225 to 229 °C for the first, 204 to 210 °C for the second.

Compared with `N#Cc1c(-c2ccccc2C(=O)NCCN)cc(-c2ccccc2O)nc1NC(=O)c1cccs1` (as salt: hydrochloride) [Example 24, N-[4-(2-{[(2-aminoethyl)amino]carbonyl}phenyl)-3-cyano-6-(2-hydroxyphenyl)pyridin-2-yl]thiophene-2-carboxamide dihydrochloride], `CN(C)c1ccc(-c2cc(-c3ccccc3O)nc(NC(=O)c3cccs3)c2C#N)cc1C(=O)NCCN` (as salt: hydrochloride) [Example 248, N-[4-[3-{[(2-aminoethyl)amino]carbonyl}-4-(dimethylamino)phenyl]-3-cyano-6-(2-hydroxyphenyl)pyridin-2-yl]thiophene-2-carboxamide dihydrochloride] is higher in melting point: 196 to 201 °C for the first, 210 to 216 °C for the second.

First: NCCC(=O)Nc1cccc(-c2cc(NC(=O)c3cccs3)nc(-c3ccccc3O)c2)c1 (as salt: hydrochloride) [Example 27, N-{4-[3-(β-alanylamino)phenyl]-6-(2-hydroxyphenyl)pyridin-2-yl}thiophene-2-carboxamide dihydrochloride]
Second: CN(C(=O)CN)c1cccc(-c2cc(-c3ccccc3O)nc(NC(=O)c3cccs3)c2C#N)c1 (as salt: hydrochloride) [Example 41, N-[3-cyano-4-{3-[glycyl(methyl)amino]phenyl}-6-(2-hydroxyphenyl)pyridin-2-yl]thiophene-2-carboxamide dihydrochloride]
The melting point of the first is higher: 214 to 220 °C for the first, 198 to 205 °C for the second.

First: N#Cc1c(-c2cccc(NC(=O)[C@@H](N)Cc3cnc[nH]3)c2)cc(-c2ccc(Cl)cc2O)nc1NC(=O)c1ccco1 (as salt: hydrochloride) [Example 243, N-{3-[6-(4-chloro-2-hydroxyphenyl)-3-cyano-2-(2-furoylamino)pyridin-4-yl]phenyl}-L-histidinamide dihydrochloride]
Second: N#Cc1c(-c2cccc(NC(=O)[C@H](N)Cc3cnc[nH]3)c2)cc(-c2ccc(Cl)cc2O)nc1NC(=O)c1ccco1 (as salt: hydrochloride) [Example 253, N-{3-[6-(4-chloro-2-hydroxyphenyl)-3-cyano-2-(2-furoylamino)pyridin-4-yl]phenyl}-D-histidinamide dihydrochloride]
The melting point of the first is higher: 206 to 214 °C for the first, 200 to 206 °C for the second.

Compared with `CN(C)CC(=O)Nc1cccc(-c2cc(-c3ccc(F)cc3O)nc(NC(=O)c3ccco3)c2CN(C)C)c1` (as salt: hydrochloride) [Example 300, N-[3-[(dimethylamino)methyl]-4-{3-[(N,N-dimethylglycyl)amino]phenyl}-6-(4-fluoro-2-hydroxyphenyl)pyridin-2-yl]-2-furamide dihydrochloride], `CN(C)C[C@@H](C(=O)Nc1cccc(-c2cc(-c3ccc(F)cc3O)nc(NC(=O)c3ccco3)c2C#N)c1)N(C)C` (as salt: hydrochloride) [Example 305, N-[3-cyano-4-(3-{[3-(dimethylamino)-N,N-dimethyl-L-alanyl]amino}phenyl)-6-(4-fluoro-2-hydroxyphenyl)pyridin-2-yl]-2-furamide dihydrochloride] is higher in melting point: 186 to 194 °C for the first, 195 to 200 °C for the second.

First: CCN(CC)CCN(CC)c1cccc(-c2cc(-c3ccc(F)cc3O)nc(NC(=O)c3ccco3)c2C#N)c1 (as salt: hydrochloride) [Example 304, N-[3-cyano-4-{3-[[2-(diethylamino)ethyl] (ethyl)amino]phenyl}-6-(4-fluoro-2-hydroxyphenyl)pyridin-2-yl]-2-furamide dihydrochloride]
Second: CCCC(CC(=O)Nc1cccc(-c2cc(-c3ccc(F)cc3O)nc(NC(=O)c3ccco3)c2C#N)c1)N(CC)CC (centres unmarked) (as salt: hydrochloride) [Example 317, N-[3-cyano-4-(3-{[3-(diethylamino)hexanoyl]amino}phenyl)-6-(4-fluoro-2-hydroxyphenyl)pyridin-2-yl]-2-furamide hydrochloride]
The melting point of the first is lower: 138 to 144 °C for the first, 195 to 197 °C for the second.

Compared with `CCN1CCN(Cc2cccc(-c3cc(-c4ccc(F)cc4O)nc(NC(=O)c4ccco4)c3C#N)c2)CC1` (as salt: hydrochloride) [Example 334, N-[3-cyano-4-{3-[(4-ethylpiperazin-1-yl)methyl]phenyl}-6-(4-fluoro-2-hydroxyphenyl)pyridin-2-yl]-2-furamide dihydrochloride], `COc1ccc(-c2cc(-c3cccc(NC(=O)CCN)c3)c(C#N)c(NC(=O)c3ccccc3)n2)c(O)c1` (as salt: trifluoroacetate) [Example 50, N-{4-[3-(β-alanylamino)phenyl]-3-cyano-6-(2-hydroxy-4-methoxyphenyl)pyridin-2-yl}benzamide trifluoroacetate] is lower in melting point: 215 to 222 °C for the first, 164 to 170 °C for the second.

First: N#Cc1c(-c2cccc(NC(=O)CCN)c2)cc(-c2cc(Cl)ccc2O)nc1NC(=O)c1ccccc1 (as salt: trifluoroacetate) [Example 47, N-{4-[3-(β-alanylamino)phenyl]-6-(5-chloro-2-hydroxyphenyl)-3-cyanopyridin-2-yl}benzamide trifluoroacetate]
Second: N#Cc1c(-c2cccc(NC(=O)CCN)c2)cc(-c2ccc(Cl)cc2O)nc1NC(=O)c1ccccc1 (as salt: trifluoroacetate) [Example 51, N-{4-[3-(β-alanylamino)phenyl]-6-(4-chloro-2-hydroxyphenyl)-3-cyanopyridin-2-yl}benzamide trifluoroacetate]
The melting point of the first is higher: 205 to 210 °C for the first, 160 to 167 °C for the second.
